Experimental data as given in ChEMBL document CHEMBL4130424, “Synthesis and biological effect of chrom-4-one derivatives as functional inhibitors of heat shock protein 27” (2017).
Active and inactive are the calls of the source. The calls are words filed in the database; no cut-off is given here.

Tests used:
[1] = target: Heat shock protein beta-1 (Homo sapiens) (UniProt P04792); assay: Induction of abnormal HSP27 dimerization in human NCI-H460 cells at 10 uM co-treated with 17-AAG after 24 hrs by Western blot analysis; type: cell-based
[2] = target: Heat shock protein beta-1 (Homo sapiens) (UniProt P04792); assay: Induction of abnormal HSP27 dimerization in human NCI-H460 cells at 10 uM after 12 hrs by Western blot analysis; type: cell-based
[3] = target: Heat shock protein beta-1 (Homo sapiens) (UniProt P04792); assay: Induction of abnormal recombinant HSP27 (unknown origin) dimerization after 3 hrs by Western blot analysis
NCI-H460 [4] = assay: Induction of apoptosis in human NCI-H460 cells assessed as increase in cleaved PARP levels at 10 uM after 12 hrs by Western blot analysis; type: functional, cell-based
NCI-H460 [5] = assay: Induction of apoptosis in human NCI-H460 cells assessed as increase in cleaved caspase-7 levels at 10 uM after 12 hrs by Western blot analysis; type: functional, cell-based
[6] = target: Heat shock protein beta-1 (Homo sapiens) (UniProt P04792); assay: Induction of abnormal HSP27 dimerization in human NCI-H460 cells assessed as potentiation of 17-AAG-induced antiproliferative activity at 10 uM after 24 hrs by EZ-CYTOX cell viability assay; type: cell-based
[7] = target: Heat shock protein beta-1 (Homo sapiens) (UniProt P04792); assay: Induction of abnormal HSP27 dimerization in human NCI-H460 cells assessed as potentiation of 17-AAG-induced increase in cleaved PARP levels at 10 uM after 24 hrs by Western blot analysis; type: cell-based
[8] = target: Heat shock protein beta-1 (Homo sapiens) (UniProt P04792); assay: Induction of abnormal HSP27 dimerization in human NCI-H460 cells assessed as potentiation of 17-AAG-induced increase in cleaved caspase-7 levels at 10 uM after 24 hrs by Western blot analysis; type: cell-based
NCI-H460 [9] = assay: Induction of apoptosis in human NCI-H460 cells assessed as necrotic cells at 10 uM after 24 hrs by Annexin V/propidium iodide double staining-based FACS analysis (reference value: 1.29%); type: functional
NCI-H460 [10] = assay: Induction of apoptosis in human NCI-H460 cells assessed as late apoptotic cells at 10 uM after 24 hrs by Annexin V/propidium iodide double staining-based FACS analysis (reference value: 3.66%); type: functional
NCI-H460 [11] = assay: Induction of apoptosis in human NCI-H460 cells assessed as early apoptotic cells at 10 uM after 24 hrs by Annexin V/propidium iodide double staining-based FACS analysis (reference value: 3.84%); type: functional
[12] = target: Heat shock protein beta-1 (Homo sapiens) (UniProt P04792); assay: Induction of abnormal HSP27 dimerization in human NCI-H460 cells assessed as potentiation of 17-AAG-induced apoptosis by measuring late apoptotic cells at 10 uM after 24 hrs by Annexin V/propidium iodide double staining-based FACS analysis (reference value: 7.53%); type: cell-based
NCI-H460 [13] = assay: Potentiation of 17-AAG-induced antiproliferative activity in HSP27-knockdown human NCI-H460 cells at 10 uM after 24 hrs by EZ-CYTOX cell viability assay; type: functional, cell-based
[14] = target: Heat shock protein beta-1 (Homo sapiens) (UniProt P04792); assay: Induction of abnormal HSP27 dimerization in human NCI-H460 cells assessed as potentiation of cisplatin-induced antiproliferative activity at 10 uM after 24 hrs by EZ-CYTOX cell viability assay; type: cell-based
[15] = target: Heat shock protein beta-1 (Homo sapiens) (UniProt P04792); assay: Induction of abnormal HSP27 dimerization in human NCI-H460 cells assessed as potentiation of cisplatin-induced increase in cleaved PARP levels at 10 uM after 24 hrs by Western blot analysis; type: cell-based
[16] = target: Heat shock protein beta-1 (Homo sapiens) (UniProt P04792); assay: Induction of abnormal HSP27 dimerization in human NCI-H460 cells assessed as potentiation of cisplatin-induced increase in cleaved caspase-7 levels at 10 uM after 24 hrs by Western blot analysis; type: cell-based
NCI-H460 [17] = assay: Induction of apoptosis in human NCI-H460 cells assessed as late apoptotic cells at 10 uM after 24 hrs by Annexin V/propidium iodide double staining-based FACS analysis (reference value: 3.92%); type: functional
NCI-H460 [18] = assay: Induction of apoptosis in human NCI-H460 cells assessed as early apoptotic cells at 10 uM after 24 hrs by Annexin V/propidium iodide double staining-based FACS analysis (reference value: 2.83%); type: functional
NCI-H460 [19] = assay: Induction of apoptosis in human NCI-H460 cells assessed as necrotic cells at 10 uM after 24 hrs by Annexin V/propidium iodide double staining-based FACS analysis (reference value: 2.92%); type: functional
[20] = target: Heat shock protein beta-1 (Homo sapiens) (UniProt P04792); assay: Induction of abnormal HSP27 dimerization in human NCI-H460 cells assessed as potentiation of cisplatin-induced apoptosis by measuring late apoptotic cells at 10 uM after 24 hrs by Annexin V/propidium iodide double staining-based FACS analysis (reference value: 3.74%); type: cell-based
[21] = target: Heat shock protein beta-1 (Homo sapiens) (UniProt P04792); assay: Induction of abnormal HSP27 dimerization in human NCI-H460 cells assessed as potentiation of cisplatin-induced apoptosis by measuring early apoptotic cells at 10 uM after 24 hrs by Annexin V/propidium iodide double staining-based FACS analysis (reference value: 7.49%); type: cell-based
[22] = target: Heat shock protein beta-1 (Homo sapiens) (UniProt P04792); assay: Induction of abnormal HSP27 dimerization in human NCI-H460 cells assessed as potentiation of cisplatin-induced apoptosis by measuring necrotic cells at 10 uM after 24 hrs by Annexin V/propidium iodide double staining-based FACS analysis (reference value: 2.26%); type: cell-based
[23] = target: Heat shock protein beta-1 (Homo sapiens) (UniProt P04792); assay: Induction of abnormal HSP27 dimerization in human NCI-H460 cells assessed as potentiation of 17-AAG-induced apoptosis by measuring early apoptotic cells at 10 uM after 24 hrs by Annexin V/propidium iodide double staining-based FACS analysis (reference value: 17.86%); type: cell-based
[24] = target: Heat shock protein beta-1 (Homo sapiens) (UniProt P04792); assay: Induction of abnormal HSP27 dimerization in human NCI-H460 cells assessed as potentiation of 17-AAG-induced apoptosis by measuring necrotic cells at 10 uM after 24 hrs by Annexin V/propidium iodide double staining-based FACS analysis (reference value: 1.42%); type: cell-based
NCI-H460 [25] = assay: Potentiation of 17-AAG-induced antiproliferative activity against human NCI-H460 cells at 10 uM after 24 hrs by EZ-CYTOX cell viability assay; type: functional, cell-based
NCI-H460 [26] = assay: Potentiation of 17-AAG-induced apoptosis in human NCI-H460 cells assessed as late apoptotic cells at 10 uM after 24 hrs by Annexin V/propidium iodide double staining-based FACS analysis (reference value: 7.53%); type: functional
NCI-H460 [27] = assay: Potentiation of 17-AAG-induced apoptosis in human NCI-H460 cells assessed as early apoptotic cells at 10 uM after 24 hrs by Annexin V/propidium iodide double staining-based FACS analysis (reference value: 17.86%); type: functional
NCI-H460 [28] = assay: Potentiation of 17-AAG-induced apoptosis in human NCI-H460 cells assessed as necrotic cells at 10 uM after 24 hrs by Annexin V/propidium iodide double staining-based FACS analysis (reference value: 1.42%); type: functional
NCI-H460 [29] = assay: Potentiation of cisplatin-induced apoptosis in human NCI-H460 cells assessed as late apoptotic cells at 10 uM after 24 hrs by Annexin V/propidium iodide double staining-based FACS analysis (reference value: 3.74%); type: functional
NCI-H460 [30] = assay: Potentiation of cisplatin-induced apoptosis in human NCI-H460 cells assessed as early apoptotic cells at 10 uM after 24 hrs by Annexin V/propidium iodide double staining-based FACS analysis (reference value: 7.49%); type: functional
NCI-H460 [31] = assay: Potentiation of cisplatin-induced apoptosis in human NCI-H460 cells assessed as necrotic cells at 10 uM after 24 hrs by Annexin V/propidium iodide double staining-based FACS analysis (reference value: 2.26%); type: functional

Chain of Heat shock protein beta-1 (Homo sapiens) (P04792 whole entry): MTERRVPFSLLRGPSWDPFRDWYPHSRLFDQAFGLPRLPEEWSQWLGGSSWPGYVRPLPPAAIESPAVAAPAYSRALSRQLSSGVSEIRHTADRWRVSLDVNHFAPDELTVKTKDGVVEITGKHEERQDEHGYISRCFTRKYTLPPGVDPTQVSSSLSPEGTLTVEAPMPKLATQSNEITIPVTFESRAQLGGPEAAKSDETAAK

SMILES	Activity [1]	Activity [2]	Activity [3]	Activity (NCI-H460 [4])	Activity (NCI-H460 [5])	Activity [7]	Activity [8]	Activity (NCI-H460 [9]) [%]	Activity (NCI-H460 [10]) [%]	Activity (NCI-H460 [11]) [%]	Activity (NCI-H460 [13])	Activity (NCI-H460 [17]) [%]	Activity (NCI-H460 [18]) [%]	Activity (NCI-H460 [19]) [%]	Activity (NCI-H460 [26]) [%]	Activity (NCI-H460 [27]) [%]	Activity (NCI-H460 [28]) [%]	also measured
Cc1cc(=O)c2c(O)cc(OCC3CS3)cc2o1 (configuration not stated)	Active	Active	Active	Active	Active	Active	Active	1.97	5.9	3.47	inactive	5.21	4.73	1.89	–	–	–	Activity [6]: Active; Activity [12]: 16.5%; Activity [14]: Active; Activity [15]: Active; Activity [16]: Active; Activity [20]: 4.52%; Activity [21]: 9.47%; Activity [22]: 2.11%; Activity [23]: 18.6%; Activity [24]: 3.87%
O=c1c2ccccc2oc2cc(OCC3CS3)cc(OCC3CS3)c12 (configuration not stated)	Active	Active	Active	Active	Active	Active	Active	3.38	8.13	8.67	Active	–	–	–	20.69	21.99	5.18	Activity (NCI-H460 [25]): Active
O=c1cc(-c2ccccc2)oc2cc(OCC3CO3)cc(OCC3CO3)c12 (configuration not stated)	–	–	Active	–	–	–	–	–	–	–	–	–	–	–	–	–	–	–
O=c1cc(-c2ccccc2)oc2cc(OCC3CO3)cc(O)c12 (configuration not stated)	–	–	inactive	–	–	–	–	–	–	–	–	–	–	–	–	–	–	–
Cc1cc(=O)c2c(OCC3CS3)cc(OCC3CS3)cc2o1 (configuration not stated)	Active	Active	Active	Active	Active	Active	Active	2.37	4.5	3.49	inactive	3.53	6.25	2.67	–	–	–	Activity [6]: Active; Activity [12]: 13%; Activity [14]: Active; Activity [15]: Active; Activity [16]: Active; Activity [20]: 6.44%; Activity [21]: 11.1%; Activity [22]: 2.91%; Activity [23]: 18%; Activity [24]: 5.37%
O=c1cc(-c2ccccc2)oc2cc(OCC3CS3)cc(O)c12 (configuration not stated)	–	–	Active	–	–	–	–	–	–	–	–	–	–	–	–	–	–	–
O=c1cc(-c2ccccc2)oc2cc(OCC3CS3)cc(OCC3CS3)c12 (configuration not stated)	Active	Active	Active	Active	Active	Active	Active	11.71	27.48	9.85	Active	–	–	–	31.53	10.78	10.12	Activity (NCI-H460 [25]): Active
COc1cc(OCC2CS2)c2c(=O)c3ccccc3oc2c1 (configuration not stated)	–	–	inactive	–	–	inactive	inactive	0.6	4.04	3.42	inactive	4.27	3.41	3.6	6.65	6.62	0.68	Activity (NCI-H460 [29]): 4.81%; Activity (NCI-H460 [30]): 7.29%; Activity (NCI-H460 [31]): 2.45%
